These are literature values, as cited in paper PMC6361557 (Cancer Science, 2019).

The term IC50 denotes the point on the concentration scale where inhibition reaches its midpoint.

This data set concerns PSMA. To be noted: LNCaP cells.

Turning to ^68Ga‐PSMA‐11, the IC50 is 24.3 nM.

For `O=C(O)CC[C@H](NC(=O)N[C@@H](CCCCNC(=O)c1ccc(F)nc1)C(=O)O)C(=O)O` [^18F‐DCFPyL], the IC50 is […].
